{
  "source": "patent US20240207217A1",
  "about": "“IMPROVED TREATMENT METHODS FOR CABAZITAXEL” (ORBICULAR PHARMACEUTICAL TECHNOLOGIES PRIVATE LIMITED, priority 2020, published 2024)",
  "origin": "cited, not measured here",
  "key": {"[1]": {"details": "clinical trials in patients with cancer"}, "complement": {"system": "complement", "details": "enzyme-linked immunosorbent assays"}, "[2]": {"details": "IV administration; high clearance and small Vd"}},
  "note": "“Also recorded” adds a separate entry of the source.",
  "data": [
    {"compound": "CO[C@H]1C(=O)[C@]2(C)[C@@H](OC)C[C@H]3OC[C@@]3(OC(C)=O)[C@H]2[C@H](OC(=O)c2ccccc2)[C@]2(O)C[C@H](OC(=O)[C@H](O)[C@@H](NC(=O)OC(C)(C)C)c3ccccc3)C(C)=C1C2(C)C", "note": "[cabazitaxel]", "values": [
      {"measurement": "Solubility in water", "value": "poorly soluble"}
    ]},
    {"compound": "CC(=O)O[C@@]12CO[C@@H]1C[C@H](O)[C@@]1(C)C(=O)[C@H](O)C3=C(C)[C@@H](OC(=O)[C@H](O)[C@@H](NC(=O)OC(C)(C)C)c4ccccc4)C[C@@](O)([C@@H](OC(=O)c4ccccc4)[C@H]21)C3(C)C", "note": "[docetaxel]", "values": [
      {"measurement": "Incidence of infusion-site adverse events (ISAEs)", "setting": "[1]", "value": "3-4%"},
      {"measurement": "Solubility in water", "value": "poorly soluble"},
      {"measurement": "Complement activation in vitro (in words)", "setting": "complement", "value": "cause complement activation"}
    ]},
    {"compound": "CC(=O)O[C@H]1C(=O)[C@@]2(C)[C@H]([C@H](OC(=O)c3ccccc3)[C@]3(O)C[C@H](OC(=O)[C@H](O)[C@@H](NC(=O)c4ccccc4)c4ccccc4)C(C)=C1C3(C)C)[C@]1(OC(C)=O)CO[C@@H]1C[C@@H]2O", "note": "[paclitaxel]", "values": [
      {"measurement": "Solubility in water", "value": "poorly soluble"}
    ]},
    {"compound": "Poly-oxyethylene-sorbitan monooleate [polysorbate 80]", "values": [
      {"measurement": "Complement activation in vitro (in words)", "setting": "complement", "value": "cause complement activation; also recorded: could activate the complement system"}
    ]},
    {"compound": "sulfobutyl-ether-beta-cyclodextrin [SBCD]", "values": [
      {"measurement": "Half-life (t ½)", "setting": "[2]", "value": "quite short"}
    ]}
  ]
}
